molecular target: MYT1 protein (Homo sapiens (Human), UniProt Q99640); experiment: Test for binding to ATP binding site of MYT1 (Kinase Tracer 178 / Eu-Anti-GST antibody TR-FRET); conditions: ATP binding site of MYT1, 30 minutes at room temperature
Description: The binding capacity of each compound to the ATP binding site of MYT1 Kinase protein was evaluated. 5× Kinase Buffer A (manufactured by Thermo Fisher Scientific Inc., PV3189) was diluted to 5 times with Milli-Q water, thereby preparing 1× Kinase Buffer. Using 1× Kinase Buffer, MYT1 protein (manufactured by Carna Biosciences, Inc.) was diluted to a concentration of 0.005 μM and Eu-Anti-GST Antibody was diluted to a concentration of 1 μM. […] To a 96 well-plate, 2.5 μL of a compound diluted with DMSO was added. […] The mixture was well mixed and then allowed to stand at room temperature for 30 minutes. Thereafter, fluorescence wavelengths of 665 nm and 615 nm generated by irradiation with excitation light of 340 nm were detected using Envision (manufactured by PerkinElmer). The proportion of Tracer bound to MYT1 protein was calculated for every condition by dividing the intensity at the fluorescence wavelength of 665 nm by the intensity at the fluorescence wavelength of 615 nm.

MYT1 protein, sequence (Q99640 whole entry): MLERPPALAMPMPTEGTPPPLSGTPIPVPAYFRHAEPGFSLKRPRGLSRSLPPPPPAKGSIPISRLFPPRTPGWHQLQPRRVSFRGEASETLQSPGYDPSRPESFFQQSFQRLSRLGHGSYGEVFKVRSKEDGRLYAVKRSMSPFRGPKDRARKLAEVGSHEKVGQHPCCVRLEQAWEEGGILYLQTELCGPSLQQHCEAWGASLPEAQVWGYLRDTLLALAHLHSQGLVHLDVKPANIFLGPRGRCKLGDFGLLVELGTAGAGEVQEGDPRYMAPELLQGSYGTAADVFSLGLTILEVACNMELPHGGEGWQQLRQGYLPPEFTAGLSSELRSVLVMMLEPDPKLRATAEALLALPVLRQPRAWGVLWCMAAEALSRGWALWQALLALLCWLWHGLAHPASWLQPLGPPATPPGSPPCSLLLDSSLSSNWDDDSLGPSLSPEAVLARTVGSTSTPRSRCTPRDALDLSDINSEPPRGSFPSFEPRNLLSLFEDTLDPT

Row | SMILES | IC50 [nM]
1 | Nc1c(-c2ccc(F)c3[nH]ncc23)c2cc(C3CC3)c3cccc(Cl)c3c2[nH]c1=O [Compound B20, 3-Amino-10-chloro-6-cyclopropyl-4-(7-fluoro-1H-indazol-4-yl)-1H-benzo[h]quinolin-2-one] | 42
2 | Nc1c(-c2ccc(F)c3[nH]ncc23)c2cc(Br)c3ccccc3c2[nH]c1=O [Compound B21, 3-Amino-6-bromo-4-(7-fluoro-1H-indazol-4-yl)-1H-benzo[h]quinolin-2-one] | 20
3 | Nc1c(-c2ccc(F)c3[nH]ncc23)c2cc(C3CCCC3)c3ccccc3c2[nH]c1=O [Compound B25, 3-Amino-6-cyclopentyl-4-(7-fluoro-1H-indazol-4-yl)-1H-benzo[h]quinolin-2-one] | 24
4 | CC#Cc1cc2c(-c3ccc(F)c4[nH]ncc34)c(N)c(=O)[nH]c2c2ccccc12 [Compound B28, 3-Amino-4-(7-fluoro-1H-indazol-4-yl)-6-prop-1-inyl-1H-benzo[h]quinolin-2-one] | 22
5 | Cn1cc(-c2cc3c(-c4ccc(F)c5[nH]ncc45)c(N)c(=O)[nH]c3c3ccccc23)cn1 [Compound B29, 3-Amino-4-(7-fluoro-1H-indazol-4-yl)-6-(1-methylpyrazole-4-yl)-1H-benzo[h]quinolin-2-one] | 9.2
6 | C=Cc1cc2c(-c3ccc(F)c4[nH]ncc34)c(N)c(=O)[nH]c2c2ccccc12 [Compound B30, 3-Amino-6-ethenyl-4-(7-fluoro-1H-indazol-4-yl)-1H-benzo[h]quinolin-2-one] | 15
7 | Cn1c(=O)c(N)c(-c2ccc(F)c3[nH]ncc23)c2cc(Br)c3ccccc3c21 [Compound B33, 3-Amino-6-bromo-4-(7-fluoro-1H-indazol-4-yl)-1-methylbenzo[h]quinolin-2-one] | 2600
8 | Nc1c(-c2ccc(Cl)c3[nH]ncc23)c2cc(Br)c3ccccc3c2[nH]c1=O [Compound B36, 3-Amino-6-bromo-4-(7-chloro-1H-indazol-4-yl)-1H-benzo[h]quinolin-2-one] | 14
9 | CCc1cc2c(-c3ccc(Cl)c4[nH]ncc34)c(N)c(=O)[nH]c2c2ccccc12 [Compound B38, 3-Amino-4-(7-chloro-1H-indazol-4-yl)-6-ethyl-1H-benzo[h]quinolin-2-one] | 4.6
10 | Nc1c(-c2ccc(Cl)c3[nH]ncc23)c2cc(C3CCC3)c3ccccc3c2[nH]c1=O [Compound B39, 3-Amino-4-(7-chloro-1H-indazol-4-yl)-6-cyclobutyl-1H-benzo[h]quinolin-2-one] | 10
11 | Nc1c(-c2ccc(Cl)c3[nH]ncc23)c2cc(C3CCCC3)c3ccccc3c2[nH]c1=O [Compound B40, 3-Amino-4-(7-chloro-1H-indazol-4-yl)-6-cyclopentyl-1H-benzo[h]quinolin-2-one] | 13
12 | N#Cc1cc2c(-c3ccc(Cl)c4[nH]ncc34)c(N)c(=O)[nH]c2c2ccccc12 [Compound B41, 3-Amino-4-(7-chloro-1H-indazol-4-yl)-2-oxo-1H-benzo[h]quinoline-6-carbonitrile] | 14
13 | N#Cc1cc2c(-c3ccc(C#N)c4[nH]ncc34)c(N)c(=O)[nH]c2c2ccccc12 [Compound B42, 3-Amino-4-(7-cyano-1H-indazol-4-yl)-2-oxo-1H-benzo[h]quinoline-6-carbonitrile] | 250
14 | Cc1cc2c(-c3ccc(Cl)c4[nH]ncc34)c(N)c(=O)[nH]c2c2ccccc12 [Compound B43, 3-Amino-4-(7-chloro-1H-indazol-4-yl)-6-methyl-1H-benzo[h]quinolin-2-one] | 15
15 | Nc1c(-c2ccc(Cl)c3[nH]ncc23)c2ccc3ccccc3c2[nH]c1=O [Compound B44, 3-Amino-4-(7-chloro-1H-indazol-4-yl)-1H-benzo[h]quinolin-2-one] | 14
16 | Nc1c(-c2ccc(Cl)c3[nH]ncc23)c2cc(Cl)c3ccccc3c2[nH]c1=O [Compound B45, 3-Amino-6-chloro-4-(7-chloro-1H-indazol-4-yl)-1H-benzo[h]quinolin-2-one] | 33
17 | Cn1ncc2c(-c3c(N)c(=O)[nH]c4c3cc(Br)c3ncccc34)ccc(F)c21 [Compound C2, 3-Amino-6-bromo-4-(7-fluoro-1-methylindazol-4-yl)-1H-1,7-phenanthrolin-2-one] | 1100
18 | Nc1c(-c2ccc(F)c3[nH]ncc23)c2cc(O)c3ncccc3c2[nH]c1=O [Compound C3, 3-Amino-4-(7-fluoro-1H-indazol-4-yl)-6-hydroxy-1H-1,7-phenanthrolin-2-one] | 3.6
19 | Nc1c(-c2ccc(F)c3[nH]ncc23)c2cc(O[C@@H]3CCOC3)c3ncccc3c2[nH]c1=O [Compound C5, 3-Amino-4-(7-fluoro-1H-indazol-4-yl)-6-[(3R)-oxolan-3-yl]oxy-1H-1,7-phenanthrolin-2-one] | 1.4

Row | SMILES | IC50 [nM]
20 | Nc1c(-c2ccc(F)c3[nH]ncc23)c2cc(OC3CCCC3)c3ncccc3c2[nH]c1=O [Compound C6, 3-Amino-6-cyclopentyloxy-4-(7-fluoro-1H-indazol-4-yl)-1H-1,7-phenanthrolin-2-one] | 1
21 | Nc1c(-c2ccc(F)c3[nH]ncc23)c2cc(OC3CCOCC3)c3ncccc3c2[nH]c1=O [Compound C7, 3-Amino-4-(7-fluoro-1H-indazol-4-yl)-6-(oxan-4-yloxy)-1H-1,7-phenanthrolin-2-one] | 1.2
22 | Nc1c(-c2ccc(F)c3[nH]ncc23)c2cc(OCC3CCC3)c3ncccc3c2[nH]c1=O [Compound C9, 3-Amino-6-(cyclobutylmethoxy)-4-(7-fluoro-1H-indazol-4-yl)-1H-1,7-phenanthrolin-2-one] | 3.2
23 | CC(C)CCOc1cc2c(-c3ccc(F)c4[nH]ncc34)c(N)c(=O)[nH]c2c2cccnc12 [Compound C10, 3-Amino-4-(7-fluoro-1H-indazol-4-yl)-6-(3-methylbutoxy)-1H-1,7-phenanthrolin-2-one] | 2.3
24 | Nc1c(-c2ccc(F)c3[nH]ncc23)c2cc(OCC3CC3)c3ncccc3c2[nH]c1=O [Compound C11, 3-Amino-6-(cyclopropylmethoxy)-4-(7-fluoro-1H-indazol-4-yl)-1H-1,7-phenanthrolin-2-one] | 1.4
25 | Nc1c(-c2ccc(F)c3[nH]ncc23)c2cc(O[C@H]3CCOC3)c3ncccc3c2[nH]c1=O [Compound C12, 3-Amino-4-(7-fluoro-1H-indazol-4-yl)-6-[(3S)-oxolan-3-yl]oxy-1H-1,7-phenanthrolin-2-one] | 2.2
26 | COCCOc1cc2c(-c3ccc(F)c4[nH]ncc34)c(N)c(=O)[nH]c2c2cccnc12 [Compound C14, 3-Amino-4-(7-fluoro-1H-indazol-4-yl)-6-(2-methoxyethoxy)-1H-1,7-phenanthrolin-2-one] | 2.5
27 | Nc1c(-c2ccc(F)c3[nH]ncc23)c2cc(OCC(F)(F)F)c3ncccc3c2[nH]c1=O [Compound C15, 3-Amino-4-(7-fluoro-1H-indazol-4-yl)-6-(2,2,2-trifluoroethoxy)-1H-1,7-phenanthrolin-2-one] | 2.6
28 | Nc1c(-c2ccc(F)c3[nH]ncc23)c2cc(OCC(F)F)c3ncccc3c2[nH]c1=O [Compound C16, 3-Amino-6-(2,2-difluoroethoxy)-4-(7-fluoro-1H-indazol-4-yl)-1H-1,7-phenanthrolin-2-one] | 1.1
29 | Nc1c(-c2ccc(F)c3[nH]ncc23)c2cc(OC3CCCCC3)c3ncccc3c2[nH]c1=O [Compound C17, 3-Amino-6-cyclohexyloxy-4-(7-fluoro-1H-indazol-4-yl)-1H-1,7-phenanthrolin-2-one] | 4.5
30 | Nc1c(-c2ccc(F)c3[nH]ncc23)c2cc(OC3CCC3)c3ncccc3c2[nH]c1=O [Compound C18, 3-Amino-6-cyclobutyloxy-4-(7-fluoro-1H-indazol-4-yl)-1H-1,7-phenanthrolin-2-one] | 2
31 | Nc1c(-c2ccc(F)c3[nH]ncc23)c2cc(OCCCF)c3ncccc3c2[nH]c1=O [Compound C19, 3-Amino-4-(7-fluoro-1H-indazol-4-yl)-6-(3-fluoropropoxy)-1H-1,7-phenanthrolin-2-one] | 2.2
32 | CC(C)(O)CCOc1cc2c(-c3ccc(F)c4[nH]ncc34)c(N)c(=O)[nH]c2c2cccnc12 [Compound C20, 3-Amino-4-(7-fluoro-1H-indazol-4-yl)-6-(3-hydroxy-3-methylbutoxy)-1H-1,7-phenanthrolin-2-one] | 3.6
33 | Nc1c(-c2ccc(F)c3[nH]ncc23)c2cc(OC(F)F)c3ncccc3c2[nH]c1=O [Compound C21, 3-Amino-6-(difluoromethoxy)-4-(7-fluoro-1H-indazol-4-yl)-1H-1,7-phenanthrolin-2-one] | 2.8
34 | C[C@H](Oc1cc2c(-c3ccc(F)c4[nH]ncc34)c(N)c(=O)[nH]c2c2cccnc12)C(F)(F)F [Compound C22, 3-Amino-4-(7-fluoro-1H-indazol-4-yl)-6-[(2S)-1,1,1-trifluoropropan-2-yl]oxy-1H-1,7-phenanthrolin-2-one] | 7.9
35 | Nc1c(-c2ccc(F)c3[nH]ncc23)c2cc(OC3CC(F)(F)C3)c3ncccc3c2[nH]c1=O [Compound C23, 3-Amino-6-(3,3-difluorocyclobutyl)oxy-4-(7-fluoro-1H-indazol-4-yl)-1H-1,7-phenanthrolin-2-one] | 5
36 | CC(C)(O)COc1cc2c(-c3ccc(F)c4[nH]ncc34)c(N)c(=O)[nH]c2c2cccnc12 [Compound C24, 3-Amino-4-(7-fluoro-1H-indazol-4-yl)-6-(2-hydroxy-2-methylpropoxy)-1H-1,7-phenanthrolin-2-one] | 6.5
37 | CC(F)(F)COc1cc2c(-c3ccc(F)c4[nH]ncc34)c(N)c(=O)[nH]c2c2cccnc12 [Compound C25, 3-Amino-6-(2,2-difluoropropoxy)-4-(7-fluoro-1H-indazol-4-yl)-1H-1,7-phenanthrolin-2-one] | 2.8

Reference: patent US20260062412A1, “NITROGEN-CONTAINING HETEROCYCLIC COMPOUND HAVING MYT1 INHIBITORY ACTIVITY” (CHUGAI SEIYAKU KABUSHIKI KAISHA, priority 2023, published 2026)
